# Measurements: patent US5840684A, “Glycopeptide antibiotic derivatives” (Eli Lilly and Company, priority 1995, dated 1998)
# How the values were obtained:
# [1] = tested on: Staphylococcus aureus SA1199B; assay type: cell-based
# Procedure: (§1) The MIC's were determined using a standard broth micro-dilution assay.
# [2] = tested on: Staphylococcus aureus S13E; assay type: cell-based
# Procedure: as §1
# [3] = tested on: vancomycin-resistant enterococci; assay: broth micro-dilution, mean geometric MIC; assay type: cell-based, Enterococcus faecium and Enterococcus faecalis; conditions: enterococci, 24-hour incubation
# [4] = tested on: Staphylococcus haemolyticus 105; assay: broth micro-dilution MIC; assay type: cell-based
# Procedure: (§2) The formula I compounds have in vitro and in vivo activity against Gram-positive pathogenic bacteria. The MIC's were determined using a standard broth micro-dilution assay.
# [5] = tested on: Entercoccus faecium 180; assay: broth micro-dilution MIC; assay type: cell-based; conditions: Entercoccus faecium 180
# Procedure: as §2
# [6] = tested on: Staphylococcus epidermidis 270; assay: broth micro-dilution MIC; assay type: cell-based
# Procedure: as §2
# [7] = tested on: Streptococcus pneumoniae P1; assay: broth micro-dilution MIC; assay type: cell-based
# Procedure: as §2
# [8] = tested on: Enterococcus gallinarum 245; assay: broth micro-dilution MIC; assay type: cell-based; conditions: Enterococcus gallinarum 245
# Procedure: as §2
# [9] = tested on: Staphylococcus haemolyticus 415; assay: broth micro-dilution MIC; assay type: cell-based
# Procedure: as §2
# [10] = tested on: Entercoccus faecium 2041; assay: broth micro-dilution MIC; assay type: cell-based; conditions: Entercoccus faecium 2041
# Procedure: as §2
# [11] = tested on: vancomycin-susceptible enterococci; assay: broth micro-dilution, mean geometric MIC; assay type: cell-based, Enterococcus faecium and Enterococcus faecalis; conditions: enterococci, 24-hour incubation
# [12] = tested on: Staphylococcus aureus 446; assay: broth micro-dilution MIC; assay type: cell-based
# Procedure: as §1
# [13] = tested on: Staphylococcus aureus X400; assay: broth micro-dilution MIC; assay type: cell-based
# Procedure: as §1
# [14] = tested on: Staphylococcus aureus 447; assay: broth micro-dilution MIC; assay type: cell-based
# Procedure: as §1
# [15] = tested on: Staphylococcus aureus X778; assay: broth micro-dilution MIC; assay type: cell-based
# Procedure: as §1
# [16] = tested on: Staphylococcus aureus SA1199; assay: broth micro-dilution MIC; assay type: cell-based
# Procedure: as §1
# [17] = tested on: Entercoccus faecium 276; assay: broth micro-dilution MIC; assay type: cell-based
# Procedure: as §1
# [18] = tested on: Entercoccus faecium 180-1; assay: broth micro-dilution MIC; assay type: cell-based
# Procedure: as §1
# [19] = tested on: Streptococcus pyogenes C203; assay: broth micro-dilution MIC; assay type: cell-based
# Procedure: as §1
# [20] = tested on: Staphylococcus aureus SA1199A; assay: broth micro-dilution MIC; assay type: cell-based
# Procedure: as §1
# [21] = tested on: Staphylococcus aureus 489; assay: broth micro-dilution MIC; assay type: cell-based
# Procedure: as §1
# [22] = tested on: Staphylococcus aureus 491; assay: broth micro-dilution MIC; assay type: cell-based
# Procedure: as §1
SMILES,MIC [1],MIC [2],MIC [4],MIC [5],MIC [6],MIC [7],MIC [8],MIC [9],MIC [10],"mean geometric MIC, Vancomycin Sensitive Strains [11]",MIC [12],MIC [13],MIC [14],MIC [15],MIC [16],MIC [17],MIC [18],MIC [19],MIC [20],MIC [21],other results
CNC(CC(C)C)C(=O)NC1C(=O)NC(CC(N)=O)C(=O)NC2C(=O)NC3C(=O)NC(C(=O)NC(C(=O)O)c4cc(O)cc(O)c4-c4cc3ccc4O)C(OC3CC(C)(N)C(O)C(C)O3)c3ccc(c(Cl)c3)Oc3cc2cc(c3OC2OC(CO)C(O)C(O)C2OC2CC(C)(NCC3CCC(C4CCCCC4)CC3)C(O)C(C)O2)Oc2ccc(cc2Cl)C1O (centres unmarked) [Compound 164],2 µg/mL,4 µg/mL,2 µg/mL,0.5 µg/mL,1 µg/mL,≤ 0.06 µg/mL,2 µg/mL,2 µg/mL,1 µg/mL,0.11 µg/mL,2 µg/mL,0.5 µg/mL,2 µg/mL,1 µg/mL,2 µg/mL,1 µg/mL,≤ 0.06 µg/mL,≤ 0.06 µg/mL,0.5 µg/mL,2 µg/mL,"mean geometric MIC, Vancomycin Resistant Strains [3]: 1.7 µg/mL; MIC [22]: 1 µg/mL"
CN[C@H](CC(C)C)C(=O)N[C@H]1C(=O)N[C@@H](CC(N)=O)C(=O)N[C@H]2C(=O)N[C@H]3C(=O)N[C@H](C(=O)N[C@H](C(=O)O)c4cc(O)cc(O)c4-c4cc3ccc4O)[C@H](O[C@H]3C[C@](C)(N)[C@@H](O)[C@H](C)O3)c3ccc(c(Cl)c3)Oc3cc2cc(c3O[C@@H]2O[C@H](CO)[C@@H](O)[C@H](O)[C@H]2O[C@H]2C[C@](C)(NCc3ccc(Oc4ccc(C(C)(C)C)cc4)cc3)[C@@H](O)[C@H](C)O2)Oc2ccc(cc2Cl)[C@H]1O [Compound 96],1 µg/mL,1 µg/mL,2 µg/mL,0.5 µg/mL,2 µg/mL,≤ 0.06 µg/mL,2 µg/mL,2 µg/mL,1 µg/mL,0.11 µg/mL,1 µg/mL,2 µg/mL,1 µg/mL,1 µg/mL,2 µg/mL,0.5 µg/mL,0.25 µg/mL,≤ 0.06 µg/mL,≤ 0.06 µg/mL,1 µg/mL,"mean geometric MIC, Vancomycin Resistant Strains [3]: 1.4 µg/mL; MIC [22]: 1 µg/mL"
CNC(CC(C)C)C(=O)NC1C(=O)NC(CC(N)=O)C(=O)NC2C(=O)NC3C(=O)NC(C(=O)NC(C(=O)O)c4cc(O)cc(O)c4-c4cc3ccc4O)C(OC3CC(C)(N)C(O)C(C)O3)c3ccc(c(Cl)c3)Oc3cc2cc(c3OC2OC(CO)C(O)C(O)C2OC2CC(C)(NCc3cc4ccccc4c4ccccc34)C(O)C(C)O2)Oc2ccc(cc2Cl)C1O (centres unmarked) [Compound 11],2 µg/mL,0.5 µg/mL,4 µg/mL,1 µg/mL,2 µg/mL,≤ 0.06 µg/mL,≤ 0.06 µg/mL,2 µg/mL,0.5 µg/mL,0.22 µg/mL,4 µg/mL,0.5 µg/mL,4 µg/mL,0.25 µg/mL,2 µg/mL,1 µg/mL,≤ 0.06 µg/mL,≤ 0.06 µg/mL,≤ 0.06 µg/mL,1 µg/mL,MIC [22]: 1 µg/mL
